Like-named read-outs stand apart in the source and are kept apart here. Values belong to the molecule of their own block, whether it stands above or below them. No end group written: not given here.
How the values were obtained:
[1] = tested on: C57BL/6 mice in stable telogen phase; assay: Hair growth promotion efficacy in C57BL/6 mouse model by topical route; assay type: in vivo; conditions: 5% solution, 50 μL/cm2 topically twice daily, 4 weeks + 1 week observation
Description: C57Bl6 mice in stable telogen phase (age 6-9 weeks) were carefully clipped. Topical formulation of FOL-005 at three different strengths and placebo was applied at the clipped area once daily, 5 days per week until day 26. For comparison Minoxidil was administered to one group twice daily, 5 days per week until day 26.
The present study was conducted to evaluate the hair growth promotion efficacy of FOL-005 in C57BL/6 mouse model by topical route of administration. Male C57BL/6 mice in stable telogen phase (resting phase) of hair growth cycle were used. The hair on the dorsal back of the animals was clipped and the area was treated with FOL-005 topical formulation, placebo formulation or commercially available Minoxidil 5%.
Three formulations of FOL-005 (High dose—0.5%, Medium dose—0.05% and Low dose—0.005%) along with placebo were screened for hair growth promotion efficacy by applying 50 μL/cm2 on the dorsal clipped skin of animals in the respective groups. The application regimen was total of 4 weeks (5 days/week) followed by 1 week of observation period. […] After completion of observation period, it was observed that FOL-005 formulation led to hair growth promotion efficacy in a dose response manner. […] Visual melanogenesis was also observed in the peeled skin of 3/7 animals, 2/7 animals and 1/7 animal in the High, Medium and Low dose respectively. […]

[2] = Solubility of FOL-005 in vehicle excipients and artificial sebum (HPLC); assay type: physicochemical
Description: The testing was performed by charging 0.1% (w/w) of FOL-005 together with 99.90% excipient. […] The mixtures were stirred with magnetic stirrer for 2 hours. If particles of FOL-005 remained, the mixture was centrifuged at 14000 rpm or 10000 rpm (artificial sebum) for 5 minutes and the supernatant was withdrawn for analysis. The concentration of FOL-005 was determined by HPLC analysis in all batches.

[3] = sodium salt, in PBS buffer pH 7.4, room temperature

Molecule: Nc1cc(N2CCCCC2)nc(N)[n+]1[O-] [Minoxidil]
Anagen induction followed by hair growth [1]: 4/5 | Visual melanogenesis in the peeled skin [1]: 4/5

solubility at 2 h ([2]; 0.5% Cithrol in paraffin oil, sodium salt, in 0.5% Cithrol in paraffin oil, room temperature, read-out: FOL-005 solubility): 10 µg/mL | solubility at 2 h ([2]; 10% glucose in water, in 10% Glucose in water, room temperature, read-out: FOL-005 solubility): > 1010 µg/mL | solubility of FOL-005 in 10% glucose solution ([2]; 10% glucose solution): above 4.38 % (w/w) | solubility at 2 h ([2]; 10% mannitol in water, in 10% Mannitol in water, room temperature, read-out: FOL-005 solubility): > 1040 µg/mL | solubility at 2 h ([2]; 10% sucrose in water, in 10% Sucrose in water, room temperature, read-out: FOL-005 solubility): > 1040 µg/mL | solubility at 2 h ([2]; 30% glucose in water, in 30% Glucose in water, room temperature, read-out: FOL-005 solubility): > 1070 µg/mL | solubility at 2 h ([2]; 30% sucrose in water, in 30% Sucrose in water, room temperature, read-out: FOL-005 solubility): > 1040 µg/mL | solubility at 2 h ([2]; PBS buffer, pH 7.4, sodium salt, in PBS buffer pH 7.4, room temperature, read-out: FOL-005 solubility): > 1000 µg/mL | solubility at 2 h ([2]; artificial sebum, sodium salt, in artificial sebum, 37° C., read-out: FOL-005 solubility): 270 µg/mL | Observation ([2]; in 10% Glucose in water, room temperature): soluble | Observation ([2]; in 10% Mannitol in water, room temperature): soluble | Observation ([2]; in 10% Sucrose in water, room temperature): soluble | Observation ([2]; in 30% Glucose in water, room temperature): soluble | Observation ([2]; in 30% Sucrose in water, room temperature): soluble | Observation ([2]; in lactic acid, room temperature): soluble | solubility at 2 h ([2]; lactic acid, in lactic acid, room temperature, read-out: FOL-005 solubility): > 1170 µg/mL | FOL-005 solubility [2, 3]: >980 µg/mL | Observation [2, 3]: soluble | solubility at 2 h ([2]; sugar solutions of glucose, mannitol and sucrose, sodium salt, sugar solutions of glucose, mannitol and sucrose, room temperature, read-out: solubility in sugar solutions): > 1000 µg/mL
Molecule: VDTYDGDISVVYGLR [FOL-005]
